# Experimental data reported in patent US12171744B2, “Pharmaceutical combinations for the treatment of cancer” (Presage Biosciences, Inc., priority 2016, dated 2024).
# How the values were obtained:
# [1] = system: SU-DHL-4 model of DLBCL; assay: Western blot of treated cells; assay type: cell-based
# Description: (§1) Cell lines shown in Table 1, adherent or suspension, were treated in 6-well dishes or T10 flasks respectively, seeded at one million per ml density prior to treatment in total volumes of 3-10 ml. All agents used for in vitro cell treatments were formulated in water/DMSO to achieve required concentrations (as stated in respective figure labels/legends) with DMSO concentrations not exceeding 0.01%. Drug sources are indicated in table under ‘CIVO microinjection studies’. Cells were harvested at experimental time points: 2, 6, or 24 hours post treatment as indicated in respective figures, first by washing cells twice in ice-cold PBS in 15 ml falcon tubes, centrifugation at 1000 rpm for 5 mins followed by lysis of the respective cell pellets as described in section below. Note: Drug resistant NUDHL1 Dox 1000 nM and Toledo Dox 1000 nM cell lines were generated at Presage by culturing parental lines in media with stepwise increments in Doxorubicin concentration over several passages. These cells were used to generate xenografts when resistance to 1 uM Dox was achieved.
# Protein lysates were prepared by adding ice-cold 1×RIPA Buffer (from 10×, Millipore) with 1×-3× Halt protease and phosphatase inhibitor cocktail (100×, Pierce) to cell pellets, followed by pulse sonication (˜3-5 secs) three times. Lysates were cleared by centrifugation at 14K rpm for 15-20 mins and the supernatant (lysate) was collected for further analysis. To prepare lysates from cryopreserved xenograft tumor tissue, tissue was first homogenized using a hand-held tissue homogenizer (Cole Palmer) in above lysis buffer followed by pulse sonication and centrifugation as described above. Above steps were carried out under ice cold conditions. Protein samples were quantified using Bradford assay (Biorad) at 1:10 or higher dilutions using appropriate blank controls with 1×RIPA. 20-25 micrograms of protein from each sample were subject to SDS-PAGE using BOLT 4-12% Bis-Tris gels (Thermofisher) and transferred to either 0.45 or 0.2 micron pore size membranes (as applicable based on protein molecular size), and either nitrocellulose (NC) or pvdf (Thermofisher) using manufacturer's protocol, blocked for one hour in 5% milk at room temperature, probed with primary antibodies (Table 2) at 4 deg C. overnight and corresponding HRP-conjugated secondary antibodies (Jackson Immunoresearch, 1:10,000-1:20,000 dilutions) for 1 hour at room temperature. Three PBS/0.01% Tween-20 washes (5-10 mins each) were carried out after each antibody incubation. ECL chemiluminescent substrate (Pierce or GE) and autoradiographic film (Thermofisher) was used for detection of protein signals.
# Cleaved PARP (cPARP) may be used as a biomarker of apoptosis. […] Cells were exposed to drug for 24 h prior to cell lysis and examination by Western Blot using antibodies specific for the cleaved form of PARP, MCL-1, C-MYC, and Beta actin (as a protein loading control) of FIG. 22A and BCL2 as an additional protein loading control in FIG. 22B.
# Cleaved PARP (cPARP) may be used as a biomarker of apoptosis. To assess combination efficacy of the two agents of voruciclib and venetoclax together, low doses of each were examined as single agents or as a combination in the three models of DLBCL. Cells were exposed to drug for 24 h prior to cell lysis and examination by Western Blot using antibodies specific for the cleaved form of PARP and Beta actin (as a protein loading control).
# FIG. 33 illustrates that voruciclib-induced apoptosis correlates with repression of MCL-1. Three DLBCL models were used: SUDHL4, RIvA, and U2932. Cleaved PARP (cPARP) may be used as a biomarker of apoptosis.
# [2] = target: T1, CDK1 (Homo sapiens, UniProt P06493); assay: Kinase inhibition profiling (filter binding assay with γ-33P-ATP); assay type: biochemical
# T1 construct: purchased Reaction Biology Corp. (testing facility)
# Description: (§2) For each kinase, an IC50 value were calculated from a 10-point concentration curve of the test article and converted to Ki values.
# [3] = target: T2, CDK4 (Homo sapiens, UniProt P11802); assay: as above; assay type: biochemical
# T2 construct: purchased Reaction Biology Corp. (testing facility)
# Description: as §2
# [4] = system: Ramos Burkitt's lymphoma cells; assay: CIVO microinjection, cleaved caspase-3 staining; assay type: in vivo, mice; details: marker of apoptosis
# Description: Mice were enrolled into CIVO drug studies when the tumor volume reached approximately 1000 mm^3. Microinjection studies were performed using the CIVO device as previously described (Klinghoffer et al, Science Translational Medicine 2015) The device was configured with 6 injection needles set for a 6 mm injection length and a total volume delivery of 3 μl. A fluorescent tracking marker (FTM) was added to each drug reservoir in vehicle for delivery along with each drug or drug combination. All micro-doses were equivalent to or lower than what would be allowed under FDA guidelines for Exploratory IND (Investigational New Drug) studies and by solubility of drug into vehicle. Total amounts of agents injected are tabulated below in Table 4.
# FIGS. 5A-5D show Ramos Burkitt's lymphoma cells stained for cleaved caspase-3 (CC3) (shown in red) as a marker of apoptosis.
# [5] = target: ICK (Homo sapiens, UniProt Q9UPZ9); assay: Kinase inhibition profile; assay type: biochemical
# [6] = Body weight in HCC1187 TNBC mouse model; details: in vivo
# Description: Mice were enrolled for study when tumors reached an average volume of 150-200 mm^3. Tumor volume was calculated as V=length×width×height, all three dimensions measured using digital calipers along with body weight. Animals were removed from the study when—any one of the three measured dimensions of the tumor exceeding 2 cm, volume exceeding 2500 mm^3, ulceration or body weight loss greater than 20%.
# [7] = system: 38 different kinases; assay: Comparison of inhibition profiles on 38 different kinases; assay type: biochemical; details: compared with flavopiradol
# [8] = system: RIvA DLBCL model; assay: Western blot of treated cells; assay type: cell-based; details: increasing concentration of voruciclib, single agent
# Description: as §1, with “These cells were used to generate xenografts when resistance to 1 uM Dox was achieved.” left out
# (§3) Protein lysates were prepared by adding ice-cold 1×RIPA Buffer (from 10×, Millipore) with 1×-3× Halt protease and phosphatase inhibitor cocktail (100×, Pierce) to cell pellets, followed by pulse sonication (˜3-5 secs) three times. […] Protein samples were quantified using Bradford assay (Biorad) at 1:10 or higher dilutions using appropriate blank controls with 1×RIPA. […]
# [9] = system: U2932 model of DLBCL; assay: Western blot of treated cells; assay type: cell-based; details: increasing concentration of voruciclib, single agent
# Description: as §1, with “These cells were used to generate xenografts when resistance to 1 uM Dox was achieved.” left out
# as §3
# [10] = target: MAK (Homo sapiens, UniProt P20794); assay: Kinase inhibition profile
# [11] = system: NUDHL1 model of DLBCL; assay: Xenograft tumor growth; assay type: in vivo, NOD SCID mice; details: Voruciclib 200 mpk, Venetoclax 50 mpk
# Description: Immune deficient NOD SCID mice were implanted with the NUDHL1 model of DLBCL. The xenografted tumors were allowed to grow in the NOD SCID host until they reached 200 mm^3, at which point the xenografted animals were randomized into 4 study groups: 1. Vehicle control; 2. […] Venetoclax at 50 mpk; and 4. […] Venetoclax was dosed by oral gavage on days 1 and 4 of each weekly cycle. Drug effects were assessed via tumor volume measurements twice weekly by a technician blinded to the treatment of each subject in the study. N=5-6 animals per treatment arm.
# [12] = system: NUDHL/Dox1000 cells; assay: CIVO microinjection, CC3 expression; design: species or system mice; details: mouse, in vivo
# Description: as §1
# (§4) Mice were enrolled into CIVO drug studies when the tumor volume reached approximately 1000 mm^3. […]
# [13] = system: Toledo/Dox1000 cells; assay: CIVO microinjection, CC3 expression; design: species or system mice; details: mouse, in vivo
# Description: as §1, §4
# [14] = 0.15 uM voruciclib, 20 nM venetoclax, 24 h
# [15] = increasing concentration of voruciclib, single agent
# T2 sequence (P11802 whole entry): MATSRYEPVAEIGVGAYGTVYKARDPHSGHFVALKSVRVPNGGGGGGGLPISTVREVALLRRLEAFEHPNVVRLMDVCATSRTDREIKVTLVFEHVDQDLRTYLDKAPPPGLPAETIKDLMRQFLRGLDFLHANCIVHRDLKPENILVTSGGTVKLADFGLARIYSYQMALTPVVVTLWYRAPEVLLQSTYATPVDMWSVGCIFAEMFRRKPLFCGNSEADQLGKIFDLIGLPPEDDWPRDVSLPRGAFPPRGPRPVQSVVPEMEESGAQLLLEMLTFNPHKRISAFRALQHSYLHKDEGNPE
# T2 sequence (P24385 whole entry partner): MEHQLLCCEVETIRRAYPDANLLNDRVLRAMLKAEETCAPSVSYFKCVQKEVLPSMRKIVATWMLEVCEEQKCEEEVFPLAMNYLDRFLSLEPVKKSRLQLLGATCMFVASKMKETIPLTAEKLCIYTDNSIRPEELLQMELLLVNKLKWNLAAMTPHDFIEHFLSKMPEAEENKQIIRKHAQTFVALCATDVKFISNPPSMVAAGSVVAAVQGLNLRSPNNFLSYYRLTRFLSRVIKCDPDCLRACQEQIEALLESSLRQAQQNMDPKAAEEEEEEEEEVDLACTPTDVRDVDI
# T1 sequence (P06493 whole entry): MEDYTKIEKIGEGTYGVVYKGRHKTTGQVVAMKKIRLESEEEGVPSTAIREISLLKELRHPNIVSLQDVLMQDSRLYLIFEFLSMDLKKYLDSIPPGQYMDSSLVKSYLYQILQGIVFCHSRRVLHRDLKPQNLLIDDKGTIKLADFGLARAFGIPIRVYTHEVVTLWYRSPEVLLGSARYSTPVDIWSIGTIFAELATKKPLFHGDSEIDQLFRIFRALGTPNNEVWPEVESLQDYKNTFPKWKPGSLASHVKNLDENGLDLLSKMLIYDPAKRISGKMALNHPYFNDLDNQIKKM
# T1 sequence (P14635 whole entry partner): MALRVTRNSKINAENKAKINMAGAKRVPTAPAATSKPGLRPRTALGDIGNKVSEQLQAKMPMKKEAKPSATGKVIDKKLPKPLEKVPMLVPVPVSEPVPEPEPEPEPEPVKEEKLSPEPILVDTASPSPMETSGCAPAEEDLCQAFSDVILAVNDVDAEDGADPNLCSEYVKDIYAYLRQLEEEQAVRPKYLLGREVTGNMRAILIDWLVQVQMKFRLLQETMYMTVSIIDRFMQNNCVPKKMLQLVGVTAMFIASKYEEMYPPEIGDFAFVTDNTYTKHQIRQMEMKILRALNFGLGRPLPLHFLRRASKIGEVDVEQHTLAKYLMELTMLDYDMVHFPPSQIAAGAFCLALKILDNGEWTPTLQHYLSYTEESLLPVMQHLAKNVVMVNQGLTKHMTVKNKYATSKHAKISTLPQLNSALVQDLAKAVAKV
# Sequence of ICK (Q9UPZ9 whole entry): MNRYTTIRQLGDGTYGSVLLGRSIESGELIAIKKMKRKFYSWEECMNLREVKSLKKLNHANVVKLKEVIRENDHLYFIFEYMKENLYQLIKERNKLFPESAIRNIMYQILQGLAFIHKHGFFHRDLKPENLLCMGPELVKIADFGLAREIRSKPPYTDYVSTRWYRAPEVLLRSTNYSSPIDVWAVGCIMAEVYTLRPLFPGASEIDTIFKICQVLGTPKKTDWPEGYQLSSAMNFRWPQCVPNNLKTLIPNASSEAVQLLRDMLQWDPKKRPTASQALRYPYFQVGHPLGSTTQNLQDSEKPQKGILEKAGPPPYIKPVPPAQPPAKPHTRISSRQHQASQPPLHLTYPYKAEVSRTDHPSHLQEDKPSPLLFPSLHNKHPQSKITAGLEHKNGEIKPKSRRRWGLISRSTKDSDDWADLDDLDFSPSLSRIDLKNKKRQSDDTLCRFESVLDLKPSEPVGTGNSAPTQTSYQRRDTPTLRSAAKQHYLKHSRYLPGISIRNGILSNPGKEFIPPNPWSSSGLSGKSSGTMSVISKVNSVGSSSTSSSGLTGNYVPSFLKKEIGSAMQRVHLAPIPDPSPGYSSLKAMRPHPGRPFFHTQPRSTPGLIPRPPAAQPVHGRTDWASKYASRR
# Sequence of MAK (P20794 whole entry): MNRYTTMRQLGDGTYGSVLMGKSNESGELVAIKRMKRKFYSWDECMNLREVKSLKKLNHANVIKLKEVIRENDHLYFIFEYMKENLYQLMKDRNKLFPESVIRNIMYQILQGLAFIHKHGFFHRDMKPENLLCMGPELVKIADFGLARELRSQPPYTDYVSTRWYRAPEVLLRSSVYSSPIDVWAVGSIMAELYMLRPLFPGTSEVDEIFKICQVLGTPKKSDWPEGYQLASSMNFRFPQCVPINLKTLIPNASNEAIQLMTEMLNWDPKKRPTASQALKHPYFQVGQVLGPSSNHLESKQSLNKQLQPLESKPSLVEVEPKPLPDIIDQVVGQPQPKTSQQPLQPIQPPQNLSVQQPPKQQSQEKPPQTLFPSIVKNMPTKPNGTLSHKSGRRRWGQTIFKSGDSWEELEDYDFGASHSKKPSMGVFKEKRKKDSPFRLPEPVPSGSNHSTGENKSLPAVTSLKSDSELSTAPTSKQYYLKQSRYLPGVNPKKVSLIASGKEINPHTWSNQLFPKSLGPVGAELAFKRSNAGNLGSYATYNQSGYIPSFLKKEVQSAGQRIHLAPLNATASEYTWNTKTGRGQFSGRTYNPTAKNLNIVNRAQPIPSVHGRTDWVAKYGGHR
smiles,measurement,setting,value
"CN1CC[C@@H](c2c(O)cc(O)c3c(=O)cc(-c4ccc(C(F)(F)F)cc4Cl)oc23)[C@@H]1CO (relative stereo) [voruciclib, (+)-trans-2-(2-Chloro-4-trifluoromethylphenyl)-5,7-dihydroxy-8-(2-hydroxymethyl-1-methylpyrrolidin-3-yl)-chromen-4-one]",venetoclax-induced MCL-1,"[1]; 0.15 uM voruciclib with 20 nM venetoclax, 24 h",represses
same,MCL-1 expression,[1]; [14],maintains some efficacy for repressing
same,apoptosis (cleaved PARP),[1]; [14],neither compound induces apoptosis as a single agent
same,MCL-1,[1]; [15],suppresses
same,apoptosis (cPARP),[1]; [15],increases as the concentration of voruciclib increases
same,MCL1,"[1]; voruciclib 1.5 uM, 24 h, Western blot",suppresses
same,potency,[2],single digit
same,potency,[3],single digit
same,expression of CC3,[4],slight increase
same,inhibition of ICK,[5],does not show potent inhibition
same,body weight of mice,[6],unaffected
same,specificity for CDKs,[7],more specific for CDKs than flavopiradol
same,MCL-1,[8],suppresses
same,apoptosis (cPARP),[8],increases as the concentration of voruciclib increases
same,MCL-1,[9],suppresses
same,apoptosis (cPARP),[9],increases as the concentration of voruciclib increases
same,inhibition of MAK,[10],does not show potent inhibition
same,tumor size (images),[11],smaller
same,CC3 expression,[12],slight effect
same,CC3 expression,[13],slight effect
